Data from patent US8227612B2, “Quinoline compound and pharmaceutical composition, preparation method and uses thereof” (Shanghai Institute of Pharmaceutical Industry, priority 2008, dated 2012).

Tested on: hyperlipidemia quail
Assay: Lipid-lowering in vivo experiments in hyperlipidemia quail
Details: for CHO / H/L / HDL-C / LDL-C / TG: oral, blood after four weeks hypercholesterol diet
Experimental: Lipid-lowering in vivo experiments are made in hyperlipidemia quail with the compounds [NT] according to the present invention. Atorvastatin (20 mg/kg) were used as the positive control. Two groups of dosage (Low: 5 mg/kg, High: 20 mg/kg) of the ten compounds of [NT] were tested. After one week feeding with normal diet, except for the normal control group, the model control group and the tested groups of quails were fed with hypercholesterol diet for four weeks, and then the blood was collected respectively for testing the content of […] including triglyceride, cholesterol, low density lipoprotein and high density lipoprotein.

[1] = oral administration, hyperlipidemia quail

SMILES	CHO (High: 20 mg/kg)	H/L (High: 20 mg/kg)	HDL-C (High: 20 mg/kg)	LDL-C (High: 20 mg/kg)	TG (High: 20 mg/kg)	CHO (Low: 5 mg/kg)	H/L (Low: 5 mg/kg)	HDL-C (Low: 5 mg/kg)	LDL-C (Low: 5 mg/kg)	TG (Low: 5 mg/kg)	lipid-lowering effect (in words) [1]	way of reducing lipidemia (in words) [1]
CC(C)Sc1ccc(-c2c(/C=C/[C@@H](O)C[C@@H](O)CC(=O)[O-])cnc3c(F)c(F)c(F)cc23)cc1.CC(C)Sc1ccc(-c2c(/C=C/[C@@H](O)C[C@@H](O)CC(=O)[O-])cnc3c(F)c(F)c(F)cc23)cc1.[Ca+2] [Compound A6, (3R,5S)-7-[6,7,8-trifluoro-4-(4-isopropylthiophenyl)quinoline-3-yl]-3,5-dihydroxy-6(E)-heptenoic acid hemi calcium salt]	8.66 mmol/L	1.37	4.74 mmol/L	3.66 mmol/L	4.47 mmol/L	8.65 mmol/L	1.21	4.89 mmol/L	4.61 mmol/L	0.70 mmol/L	obvious lipid-lowering effect	–
CC(C)c1ccc(Sc2cc3ncc(/C=C/[C@@H](O)C[C@@H](O)CC(=O)[O-])c(Sc4ccc(C(C)C)cc4)c3cc2F)cc1.CC(C)c1ccc(Sc2cc3ncc(/C=C/[C@@H](O)C[C@@H](O)CC(=O)[O-])c(Sc4ccc(C(C)C)cc4)c3cc2F)cc1.[Ca+2] [Compound A13]	8.88 mmol/L	1.79	5.64 mmol/L	3.95 mmol/L	0.35 mmol/L	14.13 mmol/L	0.92	6.93 mmol/L	9.23 mmol/L	0.56 mmol/L	obvious lipid-lowering effect	reduces lipidemia by lowering TG and increasing H/L ratio
O=C([O-])C[C@H](O)C[C@H](O)/C=C/c1cnc2cc(Cl)c(F)cc2c1Oc1ccc(F)cc1.O=C([O-])C[C@H](O)C[C@H](O)/C=C/c1cnc2cc(Cl)c(F)cc2c1Oc1ccc(F)cc1.[Ca+2] [Compound A14, (3R,5S)-7-[6-fluoro-7-chloro-4-(4-fluorophenoxy)quinoline-3-yl]-3,5-dihydroxy-6(E)-heptenoic acid hemi calcium salt]	7.61 mmol/L	1.44	4.66 mmol/L	3.62 mmol/L	0.96 mmol/L	11.64 mmol/L	1.15	6.63 mmol/L	6.40 mmol/L	0.74 mmol/L	obvious lipid-lowering effect	–
COc1cccc(Sc2cc3ncc(/C=C/[C@@H](O)C[C@@H](O)CC(=O)[O-])c(Sc4cccc(OC)c4)c3cc2F)c1.COc1cccc(Sc2cc3ncc(/C=C/[C@@H](O)C[C@@H](O)CC(=O)[O-])c(Sc4cccc(OC)c4)c3cc2F)c1.[Ca+2] [Compound A5]	10.55 mmol/L	1.06	5.35 mmol/L	6.40 mmol/L	0.58 mmol/L	9.66 mmol/L	1.29	5.35 mmol/L	5.07 mmol/L	1.95 mmol/L	obvious lipid-lowering effect	–
O=C([O-])C[C@H](O)C[C@H](O)/C=C/c1cnc2c(F)c(Oc3ccccc3)c(F)cc2c1Oc1ccccc1.O=C([O-])C[C@H](O)C[C@H](O)/C=C/c1cnc2c(F)c(Oc3ccccc3)c(F)cc2c1Oc1ccccc1.[Ca+2] [Compound A12, (3R,5S)-7-[6,8-difluoro-4,7-di-(phenoxy)quinoline-3-yl]-3,5-dihydroxy-6(E)-heptenoic acid hemi calcium salt]	6.25 mmol/L	2.11	3.77 mmol/L	2.52 mmol/L	0.97 mmol/L	12.40 mmol/L	1.43	6.21 mmol/L	6.75 mmol/L	0.54 mmol/L	obvious lipid-lowering effect	–
CC(C)Sc1ccc(-c2cc3c(-c4ccc(SC(C)C)cc4)c(/C=C/[C@@H](O)C[C@@H](O)CC(=O)O)cnc3c(-c3ccc(SC(C)C)cc3)c2-c2ccc(SC(C)C)cc2)cc1 [Compound A1, (3R,5S)-7-[4,6,7,8-tetra-(4-isopropylthiophenyl)quinoline-3-yl]-3,5-dihydroxy-6(E)-heptenoic acid]	8.05 mmol/L	1.54	5.31 mmol/L	3.63 mmol/L	0.51 mmol/L	8.72 mmol/L	1.91	5.84 mmol/L	3.99 mmol/L	0.59 mmol/L	obvious lipid-lowering effect	–
O=C([O-])C[C@H](O)C[C@H](O)/C=C/c1cnc2c(Oc3ccccc3)c(Oc3ccccc3)c(Oc3ccccc3)cc2c1Oc1ccccc1.O=C([O-])C[C@H](O)C[C@H](O)/C=C/c1cnc2c(Oc3ccccc3)c(Oc3ccccc3)c(Oc3ccccc3)cc2c1Oc1ccccc1.[Ca+2] [Compound A9, (3R,5S)-7-[4,6,7,8-tetra-phenoxyquinoline-3-yl]-3,5-dihydroxy-6(E)-heptenoic acid hemi calcium salt]	9.18 mmol/L	1.54	4.98 mmol/L	4.08 mmol/L	1.26 mmol/L	9.75 mmol/L	1.56	4.98 mmol/L	5.16 mmol/L	1.24 mmol/L	obvious lipid-lowering effect	–
O=C([O-])C[C@H](O)C[C@H](O)/C=C/c1cnc2c(F)c(F)c(F)cc2c1Sc1ccc(F)cc1.O=C([O-])C[C@H](O)C[C@H](O)/C=C/c1cnc2c(F)c(F)c(F)cc2c1Sc1ccc(F)cc1.[Ca+2] [Compound A8]	5.57 mmol/L	2.21	3.73 mmol/L	1.94 mmol/L	0.45 mmol/L	9.11 mmol/L	1.58	4.75 mmol/L	3.46 mmol/L	1.50 mmol/L	obvious lipid-lowering effect	–
CC(C)c1c(C(=O)Nc2ccccc2)c(-c2ccccc2)c(-c2ccc(F)cc2)n1CC[C@@H](O)C[C@@H](O)CC(=O)O [Atorvastatin, reference compound]	6.51 mmol/L	2.19	4.39 mmol/L	2.51 mmol/L	0.76 mmol/L	–	–	–	–	–	–	–
COc1cccc(Sc2c(/C=C/[C@@H](O)C[C@@H](O)CC(=O)[O-])cnc3cc(Cl)c(F)cc23)c1.COc1cccc(Sc2c(/C=C/[C@@H](O)C[C@@H](O)CC(=O)[O-])cnc3cc(Cl)c(F)cc23)c1.[Ca+2] [Compound A11]	8.53 mmol/L	1.33	5.06 mmol/L	4.30 mmol/L	0.42 mmol/L	11.63 mmol/L	1.24	6.32 mmol/L	6.51 mmol/L	0.56 mmol/L	obvious lipid-lowering effect	–
